According to article PMC9243782 (Aaps Open, 2022):
Like-named read-outs stand apart in the source and are kept apart here. Each block holds one molecule with its values, some of them ahead of it.

Assays:
[1] = cited from earlier work
[2] = First in human PK study of JOTROL, urine excretion; assay type: in vivo; details: for CL renal: human, urine
Description: For day 2 (24 h post-dose) urine collection, subjects were asked to void their bladder within 15 min before the end of the collection interval (12–24 h). For other collections, subjects were asked to void their bladder within 10 min before the end of each collection interval. Urine voided at the intersection of two intervals was included in the earlier interval. Any urine voided by subjects but not collected was documented.
The volume of urine collected in each interval was measured (individual urine volumes are on file), and two aliquots of equal volume were dispensed into polypropylene tubes for each interval. Aliquots were stored in a − 80 °C freezer, pending analysis; remaining urine from each subject was discarded.

[3] = First in human single ascending dose and food effect PK study of JOTROL, plasma; details: for Tmax / AUC(0-t) / half-life / AUC(0-inf) / k el / Cmax: both, human; for AUC(0-inf): AUC0-inf; for k el: Kel
Description: A total of 24 healthy, adult male or female volunteers were included in study part 1. […] A food effect arm was also included as part 2. […] Given that the in life portion of the study was done during the pandemic, total number, gender, ethnicity, etc., of the subjects was not mandated. A total of 4 study periods were included in this study with washout of at least 14 days between doses. […] After the completion of each cohort, an evaluation of the safety data was performed prior to determining whether to proceed with enrollment for the next scheduled dose level, to modify the dose, or to discontinue the study. […] The aliquots were transferred to a - 80 °C freezer (no more than 60 min passed between the start of centrifugation and aliquot storage), pending analysis/shipment to the analytical facility. […] Samples are extracted by a protein precipitation extraction procedure, and the compounds are detected and quantified by tandem mass spectrometry in positive ion mode on an MDS Sciex API 6500+ equipped with a Turbo Ionspray® interface. […] All concentration values that were below the lower limit of quantification (BLQ) occurring prior to dosing as well as samples with no reportable value (NRV) occurring prior to dosing were replaced by “0.00”; otherwise, they (BLQ and NRV) were set to missing for tabulation, graphical representation, and calculation purposes. PK analyses were performed using Phoenix WinNonlin® version 8.2, which was validated by Syneos Health. The WinNonlin noncompartmental analysis (NCA) module was used [NT]0-t (last detectable concentration), AUC0-inf (infinity), residual area (%), Cmax, Tmax, T1/2 el (elimination half-life), and Kel (elimination rate constant). […] Power model included the PK parameter as the response variable and dose (mg) as the explanatory variable. For this model, the variable dose was treated as a continuous variable. For evaluation of the food-effect, PK data (ln-transformed AUC0-t, AUC0-inf, Cmax and untransformed Tmax) reported under fed conditions (Period 4) and under fasting conditions (for the same dose level) were compared using analysis of variance (ANOVA) from SAS®. The ratio (fed/fasting) and 90% geometric CI were also calculated for AUC0-t, AUC0-inf, and Cmax.

[4] = 500 mg caplets, 5 g, mean ± SD, ref Boocock et al. ([2007])
[5] = 500 mg caplets, 5 g, mean ± SD, ref Brown et al. ([2010])
[6] = Friedreich's ataxia study, ref Yiu et al. ([2015])
[7] = plasma, po, 200 mg, resveratrol in plasma, mean, Treatment A: JOTROL 200 mg single oral dose, fasting
[8] = plasma, po, 500 mg, resveratrol in plasma, mean, Treatment B: JOTROL 500 mg single oral dose, fasting
[9] = plasma, po, 500 mg, resveratrol in plasma, mean, Treatment D: JOTROL 500 mg single oral dose, fed (high-fat meal)
[10] = plasma, po, 700 mg, resveratrol in plasma, mean, Treatment C: JOTROL 700 mg single oral dose, fasting

SMILES: Oc1ccc(/C=C/c2cc(O)cc(O)c2)cc1 [Resveratrol, 3,5,4′-stilbenotriol]
Cmax ([1]; 25 mg (overnight fast +3 h), radiolabeled dose, ref Walle et al. ([2004])): < 5 ng/mL
AUC ([1]; 500 mg caplets, 5 g, AUC to infinity, mean ± SD, ref Boocock et al. ([2007])): 1319 ± 780 ng·h/mL
Cmax [1, 4]: 538 ± 391 ng/mL
t1/2 [1, 4]: 8.5 ± 8.2 h
AUC [1, 5]: 4097 ± 4384 ng·h/mL
Cmax [1, 5]: 967 ± 517 ng/mL
t1/2 [1, 5]: 7.85 ± 1.97 h
Cmax ([1]; 1 g encapsulated dose, ref Turner et al., Neurology 85:1383-91, 2015): 85 ng/mL
Cmax ([1]; 2 g, 500 mg encapsulated, mean ± SD, ref Turner et al. ([2015])): 85 ± 184 ng/mL
t1/2 ([1]; 2 g, 500 mg encapsulated, ref Turner et al. ([2015])): 15 h
Cmax ([1]; 2.5 g micronized dose, ref Howells et al., Cancer Prev Res (Phila) 4:1419-1425, 2011): 1942 ng/mL
AUC exposure (estimated) ([1]; 3,000 mg/day of unmodified resveratrol, healthy volunteers, ref published data): 2100 ng·h/mL
Plasma Cmax associated with positive biomarker outcomes (amyloid beta, inflammation modulators) ([1]; Alzheimer's trial, ref Turner et al. [2015], Moussa et al. [2017], Sawda et al. [2017]): 85 ng/mL
Nominal mean plasma Cmax not associated with any efficacy [1, 6]: 128 ng/mL
Nominal plasma mean Cmax associated with positive clinical outcomes [1, 6]: 261 ng/mL
CL renal ([2]; oral, resveratrol after JOTROL 200 to 700 mg, read-out: Renal clearance, range over treatments): 2.33 to 4.17 mL/min
CL renal ([2]; oral, resveratrol after JOTROL, conversion of 0.14 to 0.25 L/h, read-out: Renal clearance): ~4 mL/min
CL renal ([2]; po, 200 mg, resveratrol renal clearance, mean, Treatment A: JOTROL 200 mg single oral dose, fasting, read-out: CLR (converted)): 4.17 mL/min
CL renal ([2]; po, 500 mg, resveratrol renal clearance, mean, Treatment B: JOTROL 500 mg single oral dose, fasting, read-out: CLR (converted)): 2.33 mL/min
CL renal ([2]; po, 700 mg, resveratrol renal clearance, mean, Treatment C: JOTROL 700 mg single oral dose, fasting, read-out: CLR (converted)): 3.17 mL/min
Renal clearance as share of GFR ([2]; resveratrol after JOTROL): 3 % of GFR
TRmax ([2]; resveratrol in urine, mean, Treatment A: JOTROL 200 mg single oral dose, fasting): 1.5 h
Delay of the peak concentration by food ([3]; JOTROL 500 mg fed vs fasting): approximately 30 min
Dose proportionality of AUC0-t and Cmax (power model) ([3]; JOTROL 200, 500, 700 mg fasting): higher than expected if dose proportional
Gender differences in the exposure of resveratrol ([3]; all JOTROL doses, p = 0.011): mean female AUC values tend to be higher than male values
Tmax ([3]; in vivo, po, 500 mg): 1 h
Tmax ([3]; plasma, oral): ~1 h
AUC(0-t) ([3]; plasma, oral, Mean AUC0-t, range over doses, resveratrol in plasma, JOTROL 200 to 700 mg, fasting): 149 to 886 ng·h/mL
half-life ([3]; plasma, oral, T½, resveratrol in plasma after JOTROL, N low, interpret with caution): ~2 h
Tmax ([3]; plasma, po, 200 mg): 0.999 h
AUC(0-inf) [3, 7]: 215 ng·h/mL
AUC(0-t) ([3]; plasma, po, 200 mg, AUC0-t, resveratrol in plasma, mean, Treatment A: JOTROL 200 mg single oral dose, fasting): 149 ng·h/mL
k el [3, 7]: 0.000153 s⁻¹
half-life ([3]; plasma, po, 200 mg, T1/2 el, resveratrol in plasma, mean, Treatment A: JOTROL 200 mg single oral dose, fasting): 1.26 h
AUC(0-inf) [3, 8]: 574 ng·h/mL
AUC(0-inf) [3, 9]: 613 ng·h/mL
AUC(0-t) ([3]; plasma, po, 500 mg, AUC0-t, resveratrol in plasma, mean, Treatment B: JOTROL 500 mg single oral dose, fasting): 480 ng·h/mL
AUC(0-t) ([3]; plasma, po, 500 mg, AUC0-t, resveratrol in plasma, mean, Treatment D: JOTROL 500 mg single oral dose, fed (high-fat meal)): 306 ng·h/mL
Cmax ([3]; plasma, po, 500 mg, Cmax, resveratrol in plasma, mean, Treatment B: JOTROL 500 mg single oral dose, fasting): 455 ng/mL
k el [3, 8]: 9.22e-05 s⁻¹
k el [3, 9]: 0.000152 s⁻¹
half-life ([3]; plasma, po, 500 mg, T1/2 el, resveratrol in plasma, mean, Treatment B: JOTROL 500 mg single oral dose, fasting): 2.74 h
half-life ([3]; plasma, po, 500 mg, T1/2 el, resveratrol in plasma, mean, Treatment D: JOTROL 500 mg single oral dose, fed (high-fat meal)): 1.71 h
Tmax ([3]; plasma, po, 700 mg): 1.02 h
AUC(0-inf) [3, 10]: 611 ng·h/mL
AUC(0-t) ([3]; plasma, po, 700 mg, AUC0-t, resveratrol in plasma, mean, Treatment C: JOTROL 700 mg single oral dose, fasting): 886 ng·h/mL
Cmax ([3]; plasma, po, 700 mg, Cmax, resveratrol in plasma, mean, Treatment C: JOTROL 700 mg single oral dose, fasting): 805 ng/mL
k el [3, 10]: 0.000126 s⁻¹
half-life ([3]; plasma, po, 700 mg, T1/2 el, resveratrol in plasma, mean, Treatment C: JOTROL 700 mg single oral dose, fasting): 1.6 h
Residual Area ([3]; resveratrol in plasma, mean, Treatment D: JOTROL 500 mg single oral dose, fed (high-fat meal)): 3.7%

SMILES: Oc1ccc(/C=C/c2cc(O)cc(O)c2)cc1 [micronized resveratrol]
Absorption ([1]; human, in vivo, po): ~ 70%

Effect of food consumption on metabolite concentrations ([3]; JOTROL 500 mg fed vs fasting): significantly decreased
AUC(0-t) ([3]; plasma, oral, Mean AUC0-t, range over doses, metabolite in plasma, increasing JOTROL (resveratrol) doses): 12000 to 54500 ng·h/mL
Cmax ([3]; plasma, oral, Mean Cmax, range over doses, metabolite in plasma, increasing JOTROL (resveratrol) doses): 6620 to 23600 ng/mL
SMILES: O=S(=O)(O)Oc1cc(O)cc(C=Cc2ccc(O)cc2)c1 [resveratrol-3-sulfate]
